Molecules are shown by their SMILES.

The experiment concerns potassium ion channel current of the DRG neurons. The class given is cell-based, SD rats. As to conditions: 5 mM.

Take `Nc1ccncc1` [4AP, 4-aminopyridine]: the Current inhibition rate amounted to 0.338 and the “Current recorded after loading” value is on record as 0.9766 nA.

Source of the values: patent publication US10633416B2 (BGI SHENZHEN CO., LIMITED, priority 2014, dated 2020).
